# ChEMBL document CHEMBL3232880, “The chemistry and biology of febrifugine and halofuginone” (Bioorg Med Chem, 2014)
# Tested on: Plasmodium falciparum
# Experiment: Antimalarial activity against chloroquine-sensitive Plasmodium falciparum FCR-3 assessed as growth inhibition
# Format: functional, organism-based
row,SMILES,EC50 [nM]
1,O=C(C[C@@H]1NCCC[C@H]1O)Cn1cnc2ccccc2c1=O (stereo in doubt; (+)-1) [FEBRIFUGINE],0.076
2,O=C(C[C@@H]1NCCC[C@H]1O)Cn1cnc2ccccc2c1=O (stereo in doubt; (-)-1) [FEBRIFUGINE],200

# Tested on: Plasmodium falciparum
# Experiment: Antimalarial activity against Plasmodium falciparum assessed as growth inhibition
# Format: functional, organism-based
row,SMILES,EC50 [nM]
1,O=c1c2ccccc2ncn1C[C@@H]1C[C@@H]2[C@@H](O)CCCN2CO1,3.7
2,COCO[C@H]1CCCN2CO[C@H](Cn3cnc4ccccc4c3=O)C[C@H]12,8.6
3,CC(=O)O[C@H]1CCCN(C(C)=O)[C@@H]1CC(=O)Cn1cnc2ccccc2c1=O,910
4,CCOC(=O)N1CCC[C@H](O)[C@H]1CC(=O)Cn1cnc2ccccc2c1=O,4800
5,O=C(C[C@H]1NCCCC1=O)Cn1cnc2ccccc2c1=O,20

# Tested on: Plasmodium berghei
# Experiment: Antimalarial activity against Plasmodium berghei infected in mouse
# Format: functional
row,SMILES,ED50 [mg/kg/day]
1,O=C(C[C@H]1NCCC[C@@H]1O)Cn1cnc2ccc(O)cc2c1=O,0.3
2,O=C(C[C@H]1NCC[C@H](O)[C@@H]1O)Cn1cnc2ccccc2c1=O,2.4
3,O=C(C[C@@H]1NCCC[C@H]1O)Cn1cnc2ccccc2c1=O (stereo in doubt; (+)-1) [FEBRIFUGINE],0.6
